According to patent US20230114241A1, “METHODS OF TREATING EPILEPSY USING THE SAME” (Trevena, Inc., priority 2019, published 2023):

Each molecule was assayed against human sphingosine-1-phosphate receptor 1 (S1P1) (Homo sapiens, UniProt P21453) (assay: Inhibition of cAMP production (HTRF cAMP HiRange), S1P1 CHO-K1 cells). Conditions: inhibition of cAMP production, S1P1; read-out: hS1P1 CAMP pEC50 (converted).
Chain of human sphingosine-1-phosphate receptor 1 (S1P1) (P21453 whole entry): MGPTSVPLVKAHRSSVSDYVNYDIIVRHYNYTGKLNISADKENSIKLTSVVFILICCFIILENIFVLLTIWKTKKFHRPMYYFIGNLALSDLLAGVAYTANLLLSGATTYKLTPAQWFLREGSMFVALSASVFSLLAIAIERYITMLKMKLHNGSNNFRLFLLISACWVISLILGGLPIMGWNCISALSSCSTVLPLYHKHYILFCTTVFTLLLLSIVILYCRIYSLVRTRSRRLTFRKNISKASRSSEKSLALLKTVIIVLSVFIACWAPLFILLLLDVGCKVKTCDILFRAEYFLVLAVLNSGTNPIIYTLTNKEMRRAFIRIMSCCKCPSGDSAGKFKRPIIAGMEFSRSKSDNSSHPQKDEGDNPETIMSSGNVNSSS
Format: cell-based
Outline: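 CHO-K1 cells co-expressing human S1P1 (C-terminal ProLink tag) and EA-β-arrestin2, plated overnight; after 30 min compound incubation at 37 °C, intracellular cAMP measured by HTRF TR-FRET following 1 h at room temperature. Values normalized to fingolimod.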
With `COc1ccncc1-c1nc(-c2ccc3c(c2)nnn3C(C)C)no1` [Compound 605, 3-(1-isopropyl-1H-benzo[d][1,2,3]triazol-5-yl)-5-(4-methoxy-pyridin-3-yl)-1,2,4-oxadiazole] the EC50 was less than 316 nM. `Cc1ccccc1-c1c[nH]c(-c2ccc3c(c2)nnn3C(C)C)c1` [Compound 516, 5-[4-(2-methylphenyl)-1H-pyrrol-2-yl]-1-(propan-2-yl)-1H-1,2,3-benzotriazole] gave an EC50 greater than 316 nM. `CC(C)n1nnc2cc(-c3noc(-c4ccccc4N)n3)ccc21` [Compound 576, 2-{3-[1-(propan-2-yl)-1H-1,2,3-benzotriazol-5-yl]-1,2,4-oxadiazol-5-yl}aniline] gave an EC50 of less than 316 nM. Molecule `COc1cc(C)c2nc(-c3ccc4c(c3)nnn4C(C)C)oc2c1` [Compound 436, 2-(1-isopropyl-1H-benzo[d][1,2,3]triazol-5-yl)-6-methoxy-4-methylbenzo[d]oxazole] has an EC50 of less than 316 nM. For `CC(C)n1nnc2cc(-c3nc(-c4ccc5nc[nH]c5c4)no3)ccc21` [Compound 511, 5-[3-(1H-1,3-benzodiazol-6-yl)-1,2,4-oxadiazol-5-yl]-1-(propan-2-yl)-1H-1,2,3-benzotriazole], the EC50 was less than 316 nM. `COc1ccc2nc(-c3ccc4c(c3)nnn4C(C)C)oc2c1` [Compound 426, 2-(1-isopropyl-1H-benzo[d][1,2,3]triazol-5-yl)-6-methoxy-benzo[d]oxazole] showed an EC50 of less than 316 nM. With `CC(C)(O)Cn1nnc2cc(-c3nc(-c4ccc5nc[nH]c5c4)no3)ccc21` [Compound 501, 1-{5-[3-(1H-1,3-benzo-diazol-6-yl)-1,2,4-oxadiazol-5-yl]-1H-1,2,3-benzotriazol-1-yl}-2-methylpropan-2-ol] the EC50 was greater than 316 nM. Work on `CC(C)(CO)n1nnc2cc(-c3noc(-c4cccnc4F)n3)ccc21` [Compound 643, 2-(5-(5-(2-fluoro-pyridin-3-yl)-1,2,4-oxadiazol-3-yl)-1H-benzo[d][1,2,3]triazol-1-yl)-2-methylpropan-1-ol] yielded an EC50 greater than 316 nM. Work on `COc1cccnc1-c1noc(-c2ccc3c(c2)nnn3C(C)C)n1` [Compound 627, 5-(1-isopropyl-1H-benzo[d][1,2,3]triazol-5-yl)-3-(3-methoxypyridin-2-yl)-1,2,4-oxadiazole] yielded an EC50 greater than 316 nM. Work on `Cc1ccc2nc(-c3ccc4c(c3)nnn4C(C)C)oc2c1` [Compound 420, 2-(1-isopropyl-1H-benzo[d][1,2,3]triazol-5-yl)-6-methyl-benzo[d]oxazole] yielded an EC50 of less than 316 nM.

Same assay, conditions: inhibition of cAMP production; potency; read-out: hS1P1 CAMP pEC50 (converted)
For `CC(C)Oc1ccc(-c2nc(-c3ccc4c(c3)nnn4C3CCCC3)no2)cc1C(F)(F)F` [Compound 14, 3-(1-cyclopentyl-1H-benzo[d][1,2,3]triazol-5-yl)-5-(4-isopropoxy-3-(trifluoromethyl)phenyl)-1,2,4-oxadiazole], the EC50 was less than 316 nM. With `O=C1CC2(CCCC2)Oc2ccc(-c3nc(-c4ccncc4)no3)cc21` [Compound 176, 6-[3-(pyridin-4-yl)-1,2,4-oxadiazol-5-yl]-3,4-dihydrospiro[1-benzopyran-2,1′-cyclopentane]-4-one] the EC50 was greater than 316 nM. In the case of `COc1ccccc1-c1coc(-c2ccc3c(c2)nnn3C(C)C)n1` [Compound 277, 5-[4-(2-methoxy-phenyl)-1,3-oxazol-2-yl]-1-(propan-2-yl)-1H-1,2,3-benzotriazole], the EC50 is reported as less than 316 nM. `COCC1(COC)CC(=O)c2cc(-c3nc(-c4cccnc4)no3)ccc2O1` [Compound 186, 2,2-bis(methoxy-methyl)-6-[3-(pyridin-3-yl)-1,2,4-oxadiazol-5-yl]-3,4-dihydro-2H-1-benzopyran-4-one] gave an EC50 greater than 316 nM. With `CC(C)Nc1ccc(-c2nc(-c3ccc4c(c3)CC(=O)N4)no2)cc1C#N` [Compound 107, 2-(isopropylamino)-5-(3-(2-oxoindolin-5-yl)-1,2,4-oxadiazol-5-yl)benzonitrile] the EC50 was less than 316 nM. With `COc1cccc(-c2noc(-c3ccc4c(c3)nnn4C3CCCC3)n2)n1` [Compound 124, 1-cyclopentyl-5-[3-(6-methoxypyridin-2-yl)-1,2,4-oxadiazol-5-yl]-1H-1,2,3-benzotriazole] the EC50 was greater than 316 nM. `COc1cccc(OC)c1-c1noc(-c2ccc3c(ccn3C(C)C)c2)n1` [Compound 325, 3-(2,6-dimethoxy-phenyl)-5-(1-isopropyl-indol-5-yl)-1,2,4-oxadiazole] gave an EC50 greater than 316 nM. For `CCC1(CC)CC(=O)c2cc(-c3nc(-c4ccc(S(N)(=O)=O)cc4)no3)ccc2O1` [Compound 106, 4-(5-(2,2-diethyl-4-oxochroman-6-yl)-1,2,4-oxadiazol-3-yl)benzenesulfonamide], the EC50 was less than 316 nM. For `CC(C)n1nnc2cc(-c3nc(-c4ccccn4)no3)ccc21` [Compound 241, 1-(propan-2-yl)-5-[3-(pyridin-2-yl)-1,2,4-oxadiazol-5-yl]-1H-1,2,3-benzotriazole], the EC50 was greater than 316 nM. `Cn1nnc2cc(-c3noc(-c4ccccc4Br)n3)ccc21` [Compound 73, 5-(2-bromophenyl)-3-(1-methyl-1H-benzo[d][1,2,3]triazol-5-yl)-1,2,4-oxadiazole] showed an EC50 greater than 316 nM. `COc1ccccc1-c1noc(-c2ccc3c(c2)nnn3C2CCOCC2)n1` [Compound 231, 5-[3-(2-methoxy-phenyl)-1,2,4-oxadiazol-5-yl]-1-(oxan-4-yl)-1H-1,2,3-benzotriazole] showed an EC50 greater than 316 nM. Work on `CC(C)n1nnc2cc(-c3nnc(-c4ccccc4O)s3)ccc21` [Compound 70, 2-{5-[1-(propan-2-yl)-1H-1,2,3-benzotriazol-5-yl]-1,3,4-thiadiazol-2-yl}phenol] yielded an EC50 of less than 316 nM. With `Cc1oc(-c2ccc3c(c2)nnn3C(C)C)nc1-c1ccccc1` [Compound 247, 5-(5-methyl-4-phenyl-1,3-oxazol-2-yl)-1-(propan-2-yl)-1H-1,2,3-benzotriazole] the EC50 was greater than 316 nM. With `COc1ccc(-c2cnc(-c3ccc4c(c3)nnn4C(C)C)s2)cc1` [Compound 109, 2-(1-isopropyl-1H-benzo[d][1,2,3]triazol-5-yl)-5-(4-methoxy-phenyl)thiazole] the EC50 was greater than 316 nM. For `Cc1cc(C)cc(-c2noc(-c3ccc4c(c3)nnn4C3CCCCC3)n2)c1` [Compound 158, 1-cyclohexyl-5-[3-(3,5-dimethylphenyl)-1,2,4-oxadiazol-5-yl]-1H-1,2,3-benzotriazole], the EC50 was greater than 316 nM. For `CC(C)n1ccc2cc(-c3nc(-c4ccccc4OC(F)(F)F)no3)ccc21` [Compound 321, 5-(1-isopropyl-1H-indol-5-yl)-3-(2-(trifluoro-methoxy)phenyl)-1,2,4-oxadiazole], the EC50 was greater than 316 nM. With `COc1cccc(-c2cnc(-c3ccc4c(c3)nnn4C(C)C)s2)c1` [Compound 108, 2-(1-isopropyl-1H-benzo[d][1,2,3]triazol-5-yl)-5-(3-methoxy-phenyl)thiazole] the EC50 was less than 316 nM. Molecule `CC(C)Nc1ccc(-c2nnc(-c3ccc4[nH]ncc4c3)o2)cc1C#N` [Compound 351, 5-[5-(1H-indazol-5-yl)-1,3,4-oxadiazol-2-yl]-2-[(propan-2-yl)amino]benzonitrile] has an EC50 of less than 316 nM. With `O=C1CCOc2ccc(-c3nc(-c4cccnc4)no3)cc21` [Compound 102, 6-[3-(pyridin-3-yl)-1,2,4-oxadiazol-5-yl]-3,4-dihydro-2H-1-benzopyran-4-one] the EC50 was greater than 316 nM. Work on `Cc1ccncc1-c1noc(-c2ccc3c(c2)nnn3CC(C)(C)O)n1` [Compound 206, 2-methyl-1-{5-[3-(4-methylpyridin-3-yl)-1,2,4-oxadiazol-5-yl]-1H-1,2,3-benzotriazol-1-yl}propan-2-ol] yielded an EC50 greater than 316 nM. `COc1ccc(-c2noc(-c3ccc4c(c3)nnn4C(C)C)n2)c2ccccc12` [Compound 129, 5-[3-(4-methoxy-naphthalen-1-yl)-1,2,4-oxadiazol-5-yl]-1-(propan-2-yl)-1H-1,2,3-benzotriazole] gave an EC50 greater than 316 nM. Molecule `CC(C)n1nnc2cc(-c3nc(-c4ccncc4)no3)ccc21` [Compound 244, 1-(propan-2-yl)-5-[3-(pyridin-4-yl)-1,2,4-oxadiazol-5-yl]-1H-1,2,3-benzotriazole] has an EC50 of less than 316 nM. With `CCC1(CC)CC(=O)c2cc(-c3nc(-c4ccc(OC)cc4)no3)ccc2O1` [Compound 65, 2,2-diethyl-6-(3-(4-methoxyphenyl)-1,2,4-oxadiazol-5-yl)chroman-4-one] the EC50 was greater than 316 nM. Work on `Fc1ccc(-c2noc(-c3ccc4c(c3)nnn4C3CCCC3)n2)cc1` [Compound 232, 1-cyclopentyl-5-[3-(4-fluorophenyl)-1,2,4-oxadiazol-5 yl]-1H-1,2,3-benzotriazole] yielded an EC50 greater than 316 nM. Work on `Brc1ccccc1-c1nc(-c2ccc3[nH]nnc3c2)no1` [Compound 97, 3-(1H-benzo[d][1,2,3]triazol-5-yl)-5-(2-bromophenyl)-1,2,4-oxadiazole] yielded an EC50 greater than 316 nM. Work on `Cc1ccccc1Cc1noc(-c2ccc3c(c2)nnn3C(C)C)n1` [Compound 202, 5-{3-[(2-methyl-phenyl)methyl]-1,2,4-oxadiazol-5-yl}-1-(propan-2-yl)-1H-1,2,3-benzotriazole] yielded an EC50 greater than 316 nM. Molecule `CC(C)n1nnc2cc(-c3nc(Cc4ccccc4)no3)ccc21` [Compound 88, 5-(3-benzyl-1,2,4-oxadiazol-5-yl)-1-(propan-2-yl)-1H-1,2,3-benzotriazole] has an EC50 greater than 316 nM. Molecule `COc1ccc(-c2nc(-c3ccc4c(c3)nnn4C(C)C)no2)cc1` [Compound 69, 3-(1-isopropyl-benzotriazol-5-yl)-5-(4-methoxyphenyl)-1,2,4-oxadiazole] has an EC50 greater than 316 nM. In the case of `CC(C)n1nnc2cc(C(=O)Nc3noc4ccccc34)ccc21` [Compound 181, N-(benzo[d]isoxazol-3-yl)-1-isopropyl-1H-benzo[d][1,2,3]triazole-5-carboxamide], the EC50 is reported as greater than 316 nM. `CC(C)n1ccc2cc(-c3nc(-c4ccccc4Cl)no3)ccc21` [Compound 320, 3-(2-chlorophenyl)-5-(1-isopropyl-1H-indol-5-yl)-1,2,4-oxadiazole] showed an EC50 of less than 316 nM. Work on `COc1ccccc1-c1noc(-c2ccc3c(c2)nnn3C(C)C)n1` [Compound 286, 5-(1-isopropyl-1H-benzo[d][1,2,3]triazol-5-yl)-3-(2-methoxy-phenyl)-1,2,4-oxadiazole] yielded an EC50 of less than 316 nM.
